In US12473295B2, “Substituted straight chain spiro derivatives” (Janssen Pharmaceutica NV, priority 2019, dated 2025):
Counter-ions that a name gives are not always drawn.

Experiments:
[1] = test system: iCell Cardiomyocytes2; experiment: Ca2+-fluorescence assay in human pluripotent stem cell-derived cardiomyocytes (CTCM human), iCell Cardiomyocytes2; assay type: cell-based; design: key: Green: No concern; Yellow: Low concern; Red: High concern; Black: Very high concern due to arrhythmic events; conditions: 30 min; for Color @ 0.1 μM (hazard score): iCell Cardiomyocytes2, 0.1 μM; for Color @ 1 μM (hazard score): iCell Cardiomyocytes2, 1 μM
Description: 7) Cardio-Electrophysiological Effects of the Testing Compounds in Synchronously Beating Human Pluripotent Stem Cell-Derived Cardiomyocytes (hSC-CMs) Using a Ca^2+-Fluorescence Assay (CTCM Human)
Compounds were tested in the 96-well plates
Compounds were tested at 0.1 μM, 0.2 μM, 0.5 μM, 1 μM, 2.5 μM and 5 μM (n=4 per dose) on Cor.4U 9-Cardiomyocytes or on iCell® Cardiomyocytes2
Alternatively, compounds were tested at 0.1 μM, 0.3 μM; 1 μM, 3 μM, 10 μM and 30 μM (n=4 per dose) mostly on iCell® Cardiomyocytes2
Dimethylsulfoxide (DMSO). The solutions of the compound in DMSO or its solvent (final concentration of 0.1% DMSO; n=8)
Preparation of Test Article and Controls
Tested compounds were dissolved in DMSO at 1000-fold the intended concentrations. A compound “mother-plate” was made, containing the test compounds and positive and negative controls at 1000-fold the final concentrations. At the experiment day, these stock solutions were diluted with Tyrode (Sigma), supplemented with 10 mM HEPES (Gibco), to 2-fold the intended concentration (in round bottom compound plates). Final DMSO concentration in test solutions and vehicle control was 0.1%.
Second line hSC derived cardiomyocyte called iCell®, Cardiomyocytes2 were purchased from FUJIFILM Cellular Dynamics (USA). The experiments with test drugs are carried out 5 to 7 days after plating the cells onto the plate to have a living, beating monolayer of hiPSC-derived cardiomyocytes. The beating monolayer in 96-well-plates are normally taken from 2 Vials of frozen iCell) Cardiomyocytes2 (≈5 million cells/vial), which will be plated onto […] 96-well plates (≈50K/well).
Before Start of Experiment
At least one hour before the start of the experiments the normal cell medium was replaced with Tyrode solution with Calcium dye (see below).
Cal 520 dye (AAT Bioquest) was dissolved in 11 ml of Tyrode supplemented with 10 mM HEPES and warmed up to 37° C. before adding to the cells.
35 μl cell culture medium was removed from each well and replaced with 35 μl of pre-warmed Cal 520 dye solution and cell plate was incubated for 45 min at 37° C./5% CO2. Cells were incubated for 5 min at 37° C.
Spontaneous electrical activity is recorded, using Cal520™ (AAT Bioquest) calcium fluorescence-dye signaling. This dye integrates the total intracellular calcium activity over the whole well. A bottle of Cal520 dye (50 μg, MW: 1103/mol) is dissolved with 50 μl DMSO as a stock solution of 0.9 mM. 50 μL of the stock solution of the dye was added to 10 ml Tryodes solution to have dye concentration of 4.5 μM. Subsequently, 35 μl of this dye solution was added into each well, to have a final dye concentration of 1.58 μM. The current dye protocol on this CTCM human assay was established recently (Ivan Kopljar et al, Journal of Pharmacological and toxicological methods 2018. 91: 80-86; Lu et al., Tox Sci 2019. 170 (2): 345-356).
Fluorescent signals (Ca^2+ transient morphology) were measured using the Functional Drug Screen System (FDSS/μCell; Hamamatsu, Japan) and the recordings were subsequently analyzed off-line, using appropriate software e.g. Notocord.
The cell plate was loaded into the FDSS/μCell for a test run: Ca^2+ transients were measured for 4 minutes to check for synchronous beating of the cardiomyocytes in each well. All 96 wells were measured simultaneously (sampling interval: 0.06 s, short exposure time: 10 ms; excitation wavelength 480 nm; emission wavelength 540 nm; FDSS/μCell warmed to 37° C.).
During the compound addition step, 100 μl of the respective double-concentrated test solutions was pipetted into each well simultaneously.
Data were analyzed off-line using appropriate software e.g. Notocord-Hem (version 4.3).
The following parameters of the Ca^2′ transient morphology were measured: • beat rate (BR) • amplitude of the Ca^2+ transient (Amp), • CTD90: Ca^2+ transient duration at 90% (time to 90% of the initial base value). […]

[2] = target: hERG potassium channel (IKr) (Homo sapiens (Human), UniProt Q12809); experiment: Effect on membrane potassium current IKr in hERG transfected CHO cells, Protocol 1 (QPatch); assay type: cell-based; conditions: human, CHO cells stably expressing the hERG potassium channel, pH 7.4
How it was run: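 Whole-cell automated patch clamp on CHO cells stably expressing hERG, held at −80 mV; the value is the tail current at −40 mV after a 2 s step to +60 mV, at pH 7.4 bath and pH 7.2 pipette. After 0.3% DMSO control, compound was applied at 3×10^−7 M, 3×10^−6 M, 10^−5 M and 3×10^−5 M, 5 min each. IC50 comes from a non-linear least-squares fit of block versus vehicle.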

[3] = test system: OCI-AML3 tumors; experiment: Efficacy study in disseminated OCI-AML3 model (survival); assay type: in vivo, mouse; conditions: disseminated OCI-AML3, SCID beige mice, vehicle 38.5 days

hERG potassium channel (IKr), sequence (Q12809 whole entry): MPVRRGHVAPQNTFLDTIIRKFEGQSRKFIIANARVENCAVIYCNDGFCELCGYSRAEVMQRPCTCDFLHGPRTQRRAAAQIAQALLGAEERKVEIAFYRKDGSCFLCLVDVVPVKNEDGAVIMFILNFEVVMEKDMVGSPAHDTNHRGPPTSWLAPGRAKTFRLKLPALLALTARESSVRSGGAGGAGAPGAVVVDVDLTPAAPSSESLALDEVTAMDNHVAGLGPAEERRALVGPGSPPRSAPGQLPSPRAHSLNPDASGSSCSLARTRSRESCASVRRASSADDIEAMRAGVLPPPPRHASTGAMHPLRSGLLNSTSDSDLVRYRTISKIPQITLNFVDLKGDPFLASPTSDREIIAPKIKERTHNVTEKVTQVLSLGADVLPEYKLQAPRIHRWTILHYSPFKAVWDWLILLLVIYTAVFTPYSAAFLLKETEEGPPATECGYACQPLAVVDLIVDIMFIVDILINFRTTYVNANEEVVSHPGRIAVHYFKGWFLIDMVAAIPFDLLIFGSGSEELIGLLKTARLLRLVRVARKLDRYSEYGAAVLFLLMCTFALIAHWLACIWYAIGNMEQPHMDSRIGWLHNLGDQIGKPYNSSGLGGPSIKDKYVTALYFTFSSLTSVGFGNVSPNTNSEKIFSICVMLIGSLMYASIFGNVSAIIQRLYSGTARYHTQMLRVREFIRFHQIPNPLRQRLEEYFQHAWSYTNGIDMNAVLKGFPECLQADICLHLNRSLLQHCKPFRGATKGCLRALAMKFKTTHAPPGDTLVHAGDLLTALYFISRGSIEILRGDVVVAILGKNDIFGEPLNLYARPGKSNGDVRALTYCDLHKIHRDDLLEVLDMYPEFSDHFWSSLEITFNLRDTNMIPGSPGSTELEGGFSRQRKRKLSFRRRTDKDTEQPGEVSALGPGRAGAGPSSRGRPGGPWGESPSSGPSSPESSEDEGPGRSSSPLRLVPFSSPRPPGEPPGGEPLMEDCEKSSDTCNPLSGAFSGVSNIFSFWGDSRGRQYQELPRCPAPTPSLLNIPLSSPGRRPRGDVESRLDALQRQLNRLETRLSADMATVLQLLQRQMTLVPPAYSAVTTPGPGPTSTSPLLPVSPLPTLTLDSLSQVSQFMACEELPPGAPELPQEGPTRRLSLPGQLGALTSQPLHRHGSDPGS

Compound | Color @ 0.1 μM (hazard score) ([1]; range 0.1-30 μM) | Color @ 0.3 μM (hazard score) ([1]; iCell Cardiomyocytes2, 0.3 μM) | Color @ 1 μM (hazard score) ([1]; range 0.1-30 μM) | Color @ 3 μM (hazard score) ([1]; iCell Cardiomyocytes2, 3 μM) | Color @ 10 μM (hazard score) ([1]; iCell Cardiomyocytes2, 10 μM) | Color @ 30 μM (hazard score) ([1]; iCell Cardiomyocytes2, 30 μM) | IC50 at 5 min [2] [µM] | Color @ 0.1 μM (hazard score) [1] | Color @ 0.2 μM (hazard score) ([1]; iCell Cardiomyocytes2, 0.2 μM) | Color @ 0.5 μM (hazard score) ([1]; iCell Cardiomyocytes2, 0.5 μM) | Color @ 1 μM (hazard score) [1] | Color @ 2.5 μM (hazard score) ([1]; iCell Cardiomyocytes2, 2.5 μM) | Color @ 5 μM (hazard score) ([1]; iCell Cardiomyocytes2, 5 μM) | median days of survival ([3]; 30 mg/kg PO daily for 28 days) [days] | median days of survival ([3]; 50 mg/kg PO daily for 28 days) [days]
CCN(C(=O)c1cc(F)ccc1Oc1nncnc1N1CCC2(C1)CN([C@H](CCCNCCOC)C(C)C)C2)C(C)C [Compound 11, (R)-N-ethyl-5-fluoro-N-isopropyl-2-((5-(2-(6-((2-methoxyethyl)amino)-2-methylhexan-3-yl)-2,6-diazaspiro[3.4]octan-6-yl)-1,2,4-triazin-6-yl)oxy)benzamide] | Green | Green | Green | Green | Green | Green | > 30.2 | – | – | – | – | – | – | – | –
CCN(C(=O)c1cc(F)ccc1Oc1nncnc1N1CCC2(C1)CN([C@H](CCCN(C)CCOC)C(C)C)C2)C(C)C [Compound 70, (R)-N-ethyl-5-fluoro-N-isopropyl-2-((5-(2-(6-((2-methoxyethyl)(methyl)amino)-2-methylhexan-3-yl)-2,6-diazaspiro[3.4]octan-6-yl)-1,2,4-triazin-6-yl)oxy)benzamide oxalate] | – | – | – | – | – | – | – | Green | Green | Green | Green | Green | Green | 75.5 | 58.5
